The text below walks through data of ChEMBL document CHEMBL1201862, “PubChem BioAssay data set” (2004).

A word on the EC50: it is the concentration needed to bring the measured effect to its halfway point. For orientation: IC50 means the point on the concentration scale where inhibition reaches its midpoint. As a reminder, the AC50 is the concentration at which the activity in the assay is half-maximal.

Counter-ions that a name gives are not always drawn. Activity calls are given as the source filed them. Bounds are passed on as bounds.

One test deals with Oxytocin receptor (Homo sapiens, UniProt P30559). Nature of the test: Fluorescence-based cell-based high throughput dose response assay for potentiators of Oxytocin Receptor (OXTR). [Related pubchem assays: 434985 (Confirmation screen (OXTR potentiators in triplicate)), 2481 (Summary (OXTR potentiators)), 2445 (Primary screen (OXTR potentiators in singlicate))]. In kind it is functional.

The target of the next test is Galanin receptor type 2 (Homo sapiens, UniProt O43603). Nature of the test: Dose Response cell-based high-throughput screening assay to identify antagonists of galanin receptor 2 (GALR2). [Related pubchem assays: 828, 866 ]. In kind it is functional.
Test [1] can be described thus: Luminescence Cell-Based Dose Response HTS to Identify Inhibitors of 5'UTR Stem-Loop Driven Prion Protein mRNA Translation in H4 Neuroglioblastoma Cells. [Related pubchem assays: 1827 (Project Summary), 1813 (Primary HTS)]. In kind it is functional.
Test [2] is described as follows: Counterscreen for AddAB inhibitors: absorbance-based bacterial cell-based high throughput dose response assay for inhibitors of bacterial viability. [Related pubchem assays (depositor defined):AID435030, AID449728, AID449731, AID488942, AID488955, AID488956]. It counts as functional. On the technique in general: Counterscreens check selectivity or assay interference.

Test [3] concerns BJ. Nature of the test: growth inhibition of engineered Ras-driven BJ cells – cell-based, alamar blue fluorescence, cherrypicked samples, dose response (AID 2631).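 Note: confirmatory dose-response assay in RAS-dependent BJ fibroblasts engineered with TERT, LT and ST, with cytotoxicity read by fluorescence.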 It counts as functional. The settings on record: Homo sapiens.
A short description of test [4]: DRD fibroblast viability loss – cell-based, non-viral oncogenic, luminescence, dose response (AID 1934). It counts as functional. The settings on record: Homo sapiens.
Test [5] is described as follows: NIH-3T3 fibroblast cytotoxicity, dose response, cytotoxicity control, cell-based, fluorescence, Alamar Blue, secondary assay (AID 2327).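 Note: NIH-3T3 mouse fibroblasts cultured with fluconazole at 8 µg/mL.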 In kind it is functional. In general terms: The colour change of resazurin is a common sign of viable cells or microbes.
For a further test, the system named is Danio rerio. Nature of the test: In Vivo Angiogenesis Dose-Response Confirmation. [Related pubchem assays: 732 (Assay preceding this confirmatory assay.)]. It counts as functional, organism-based.
The nature of test [6]: alpha-synuclein stem-loop luciferase translation blockers – H4 neuroglioma cells, luminescence, confirmation (AID 1988). In kind it is functional, cell-based.
In test [7] the test system is BJ. Put plainly: BJ-TERT-LT-ST fibroblast viability loss – cell-based, RAS-independent, luminescence, dose response (AID 1935).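 Note: BJ fibroblasts immortalized with TERT plus LT and ST oncogenes.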 The conditions noted are these: Homo sapiens. It counts as functional.
Another test addresses Nonstructural protein 1 (Influenza A virus, UniProt Q194T2). In kind it is functional, Influenza A virus (A/California/07/2009(H1N1)).
A further test deals with T1, Exodeoxyribonuclease V (Escherichia coli (strain K12), UniProt P04993+P07648+P08394).
T1 sequence (P04993 whole entry): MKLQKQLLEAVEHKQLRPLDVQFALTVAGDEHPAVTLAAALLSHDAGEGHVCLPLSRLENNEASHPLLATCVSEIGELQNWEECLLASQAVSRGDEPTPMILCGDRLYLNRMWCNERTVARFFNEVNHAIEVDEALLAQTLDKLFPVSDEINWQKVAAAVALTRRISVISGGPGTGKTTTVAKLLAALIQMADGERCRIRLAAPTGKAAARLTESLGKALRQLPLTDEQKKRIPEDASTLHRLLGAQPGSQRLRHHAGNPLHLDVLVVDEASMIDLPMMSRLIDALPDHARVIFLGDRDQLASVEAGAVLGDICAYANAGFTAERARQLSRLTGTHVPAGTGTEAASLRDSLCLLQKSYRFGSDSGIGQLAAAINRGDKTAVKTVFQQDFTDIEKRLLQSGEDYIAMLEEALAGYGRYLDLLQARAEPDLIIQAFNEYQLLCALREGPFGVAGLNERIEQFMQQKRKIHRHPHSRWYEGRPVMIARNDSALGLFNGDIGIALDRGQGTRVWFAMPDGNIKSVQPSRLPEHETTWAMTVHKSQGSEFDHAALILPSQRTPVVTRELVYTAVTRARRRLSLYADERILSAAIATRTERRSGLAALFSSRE
T1 sequence (P07648 whole entry): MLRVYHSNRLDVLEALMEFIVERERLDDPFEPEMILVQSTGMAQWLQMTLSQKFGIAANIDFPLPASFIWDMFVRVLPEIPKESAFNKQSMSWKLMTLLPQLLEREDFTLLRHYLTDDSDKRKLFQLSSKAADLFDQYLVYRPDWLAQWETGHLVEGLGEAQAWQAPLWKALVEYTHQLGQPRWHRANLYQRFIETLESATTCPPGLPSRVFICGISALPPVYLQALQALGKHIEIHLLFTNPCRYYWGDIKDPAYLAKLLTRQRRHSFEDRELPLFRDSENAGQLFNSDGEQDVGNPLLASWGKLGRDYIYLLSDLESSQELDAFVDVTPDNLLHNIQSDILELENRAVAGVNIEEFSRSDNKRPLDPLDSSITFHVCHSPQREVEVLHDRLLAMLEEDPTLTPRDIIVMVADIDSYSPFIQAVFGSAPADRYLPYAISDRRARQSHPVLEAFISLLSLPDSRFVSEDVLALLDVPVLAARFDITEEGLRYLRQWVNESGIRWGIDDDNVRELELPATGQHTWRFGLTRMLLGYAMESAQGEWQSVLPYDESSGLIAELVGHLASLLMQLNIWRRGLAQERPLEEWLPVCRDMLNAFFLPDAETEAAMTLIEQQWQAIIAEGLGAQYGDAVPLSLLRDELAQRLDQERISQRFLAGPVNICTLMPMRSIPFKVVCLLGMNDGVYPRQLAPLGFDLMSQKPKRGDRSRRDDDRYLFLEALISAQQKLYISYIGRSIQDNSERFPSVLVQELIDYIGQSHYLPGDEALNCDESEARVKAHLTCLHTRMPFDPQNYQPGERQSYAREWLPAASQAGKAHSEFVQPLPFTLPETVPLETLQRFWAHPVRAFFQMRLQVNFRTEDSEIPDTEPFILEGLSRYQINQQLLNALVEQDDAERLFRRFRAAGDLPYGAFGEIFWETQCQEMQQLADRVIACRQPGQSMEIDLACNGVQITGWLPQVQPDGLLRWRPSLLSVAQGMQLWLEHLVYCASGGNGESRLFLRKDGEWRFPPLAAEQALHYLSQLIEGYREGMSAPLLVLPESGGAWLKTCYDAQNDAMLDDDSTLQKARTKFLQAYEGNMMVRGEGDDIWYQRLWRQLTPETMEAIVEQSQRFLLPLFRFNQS
T1 sequence (P08394 whole entry): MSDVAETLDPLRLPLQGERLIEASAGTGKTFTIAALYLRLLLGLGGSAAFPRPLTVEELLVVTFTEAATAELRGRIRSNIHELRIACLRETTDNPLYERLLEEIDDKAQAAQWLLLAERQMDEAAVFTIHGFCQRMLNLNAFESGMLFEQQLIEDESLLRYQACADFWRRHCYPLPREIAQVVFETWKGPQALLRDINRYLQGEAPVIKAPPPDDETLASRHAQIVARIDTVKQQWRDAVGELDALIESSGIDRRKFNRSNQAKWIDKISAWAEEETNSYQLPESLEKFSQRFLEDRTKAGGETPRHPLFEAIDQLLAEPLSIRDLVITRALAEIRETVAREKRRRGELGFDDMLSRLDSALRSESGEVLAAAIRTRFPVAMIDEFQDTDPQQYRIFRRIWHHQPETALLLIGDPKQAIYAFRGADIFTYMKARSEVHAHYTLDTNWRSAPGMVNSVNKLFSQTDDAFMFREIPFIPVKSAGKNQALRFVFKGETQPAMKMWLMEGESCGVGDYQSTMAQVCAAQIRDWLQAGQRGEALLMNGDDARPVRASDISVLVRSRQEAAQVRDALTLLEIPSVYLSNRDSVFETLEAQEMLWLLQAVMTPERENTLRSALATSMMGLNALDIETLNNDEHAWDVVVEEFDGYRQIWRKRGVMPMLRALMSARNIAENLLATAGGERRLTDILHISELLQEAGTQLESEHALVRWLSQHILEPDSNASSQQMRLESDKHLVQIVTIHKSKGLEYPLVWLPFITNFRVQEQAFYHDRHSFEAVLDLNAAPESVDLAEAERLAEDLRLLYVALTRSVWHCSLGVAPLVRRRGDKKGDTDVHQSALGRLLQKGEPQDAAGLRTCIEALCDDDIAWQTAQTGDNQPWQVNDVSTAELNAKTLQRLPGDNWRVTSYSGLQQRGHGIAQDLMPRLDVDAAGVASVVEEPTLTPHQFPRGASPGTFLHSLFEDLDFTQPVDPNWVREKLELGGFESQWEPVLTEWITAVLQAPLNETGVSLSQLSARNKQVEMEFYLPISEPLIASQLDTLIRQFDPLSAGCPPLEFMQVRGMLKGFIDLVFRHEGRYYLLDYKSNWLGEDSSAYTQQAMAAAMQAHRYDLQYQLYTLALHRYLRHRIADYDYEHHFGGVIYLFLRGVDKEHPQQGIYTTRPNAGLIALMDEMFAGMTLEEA
Nature of the test: RecBCD inhibition via phage-restricted bacterial growth – absorbance, V66 E. coli, mutant T4 phage, counter-screen for AddAB inhibitor project, dose response (AID 492957). In kind it is functional, cell-based, Escherichia coli str. K-12 substr. MG1655.

The nature of test [8]: luciferase reporter signal suppression in cells – H4 neuroglioma cells, luminescence, dose response (AID 1990). It counts as functional, cell-based. For orientation: A reporter such as luciferase makes a cellular process visible.
Test [9] deals with BJ. Put plainly: cells. The conditions noted are these: Homo sapiens. In kind it is functional, cell-based.
Test [10] addresses Heat shock protein HSP 90-alpha (Homo sapiens, UniProt P07900). It counts as functional, organism-based.
Test [11] deals with BJ. Put plainly: BJ-TERT fibroblast viability loss – cell-based, RAS-independent, luminescence, dose response (AID 1933). In kind it is functional. The settings on record: Homo sapiens.
In the next test the target is Mucolipin-3 (Homo sapiens, UniProt Q8TDD5). Put plainly: Dose response cell-based high-throughput screening assay for agonists of the transient receptor potential channel ML3 (TRPML3). [Related pubchem assays: 1526, 1424, 1448 ]. It counts as functional.
The next test concerns the target Ion channel NompC (Danio rerio, UniProt Q7T1G6). Put plainly: Fluorescence counterscreen assay for TRPML3 agonists: dose response cell-based high-throughput screening assay to identify agonists of the transient receptor potential channel N1 (TRPN1). [Related pubchem assays: 1526, 1424, 1448 ]. In kind it is functional.
The next test deals with Streptococcus. Nature of the test: GAS UMAA2166 growth inhibition – luminescence, BacTiterGlo, counter-screen for streptokinase expression inhibitor project, dose response (AID 1915).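 Note: potency for reduction of bacterial viability or growth.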 In kind it is functional, organism-based.
In test [12] the test system is Streptococcus sp. 'group A'. Nature of the test: Streptococcus pyogenes SK(-)GAS viability under kanamycin – luminescence, BacTiterGlo, confirmation, counter-screen for streptokinase expression inhibitor project, dose response (AID 1900). It counts as functional, organism-based.
For test [13], the target named is Photoreceptor-specific nuclear receptor (Homo sapiens, UniProt Q9Y5X4). It counts as functional, cell-based.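 Note: CHO-S cells with Gal4-NCOR and VP16-NR2E3 two-hybrid luciferase reporter.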
For test [14], the target named is T2, Neuropeptide Y receptor type 1 (Homo sapiens, UniProt P25929). Nature of the test: IC50 of human NPY-Y1 blockers – cell-based, dose response (AID 1277). In kind it is functional.
The target in test [15] is T3, Neuropeptide Y receptor type 2 (Homo sapiens, UniProt P49146). Put plainly: IC50 for human NPY-Y2 blockade – cell-based, counter-screen for NPY-Y1 antagonist project, dose response (AID 1278). It counts as functional.
For test [16], the target named is T2, Neuropeptide Y receptor type 1. In kind it is functional.
Test [17] deals with T3, Neuropeptide Y receptor type 2. It counts as functional, cell-based.

T2 sequence (P25929 whole entry): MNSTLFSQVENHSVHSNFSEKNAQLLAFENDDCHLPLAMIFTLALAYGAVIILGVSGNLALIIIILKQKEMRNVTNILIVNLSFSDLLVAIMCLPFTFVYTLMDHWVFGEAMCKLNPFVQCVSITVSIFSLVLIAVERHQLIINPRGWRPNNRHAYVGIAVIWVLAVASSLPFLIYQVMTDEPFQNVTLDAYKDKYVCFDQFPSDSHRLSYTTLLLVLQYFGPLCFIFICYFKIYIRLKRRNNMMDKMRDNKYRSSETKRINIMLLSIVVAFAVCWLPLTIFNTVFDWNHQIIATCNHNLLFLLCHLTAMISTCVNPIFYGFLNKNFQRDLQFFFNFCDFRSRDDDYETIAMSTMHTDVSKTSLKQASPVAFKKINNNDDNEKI
T3 sequence (P49146 whole entry): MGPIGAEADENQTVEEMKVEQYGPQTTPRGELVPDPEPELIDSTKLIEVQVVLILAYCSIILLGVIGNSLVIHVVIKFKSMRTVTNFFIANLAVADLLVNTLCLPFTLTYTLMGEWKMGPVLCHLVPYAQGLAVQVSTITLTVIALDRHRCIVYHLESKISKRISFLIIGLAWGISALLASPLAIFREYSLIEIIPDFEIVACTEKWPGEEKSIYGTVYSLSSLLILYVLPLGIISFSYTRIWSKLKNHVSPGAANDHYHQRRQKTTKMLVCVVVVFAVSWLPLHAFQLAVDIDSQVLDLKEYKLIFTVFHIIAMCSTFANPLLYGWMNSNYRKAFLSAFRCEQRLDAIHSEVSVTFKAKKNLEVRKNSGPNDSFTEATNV
Chain of Oxytocin receptor (P30559 whole entry): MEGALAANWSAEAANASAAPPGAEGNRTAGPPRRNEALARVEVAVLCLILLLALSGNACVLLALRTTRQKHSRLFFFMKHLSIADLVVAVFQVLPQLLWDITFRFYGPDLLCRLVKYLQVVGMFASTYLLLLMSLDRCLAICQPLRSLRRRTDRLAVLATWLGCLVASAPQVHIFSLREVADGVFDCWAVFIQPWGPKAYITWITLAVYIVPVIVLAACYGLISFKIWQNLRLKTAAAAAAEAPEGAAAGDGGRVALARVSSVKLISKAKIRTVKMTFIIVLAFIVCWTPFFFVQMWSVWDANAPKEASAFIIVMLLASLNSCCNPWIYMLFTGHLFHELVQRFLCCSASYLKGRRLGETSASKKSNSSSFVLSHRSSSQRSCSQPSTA
Chain of Ion channel NompC (Q7T1G6 whole entry): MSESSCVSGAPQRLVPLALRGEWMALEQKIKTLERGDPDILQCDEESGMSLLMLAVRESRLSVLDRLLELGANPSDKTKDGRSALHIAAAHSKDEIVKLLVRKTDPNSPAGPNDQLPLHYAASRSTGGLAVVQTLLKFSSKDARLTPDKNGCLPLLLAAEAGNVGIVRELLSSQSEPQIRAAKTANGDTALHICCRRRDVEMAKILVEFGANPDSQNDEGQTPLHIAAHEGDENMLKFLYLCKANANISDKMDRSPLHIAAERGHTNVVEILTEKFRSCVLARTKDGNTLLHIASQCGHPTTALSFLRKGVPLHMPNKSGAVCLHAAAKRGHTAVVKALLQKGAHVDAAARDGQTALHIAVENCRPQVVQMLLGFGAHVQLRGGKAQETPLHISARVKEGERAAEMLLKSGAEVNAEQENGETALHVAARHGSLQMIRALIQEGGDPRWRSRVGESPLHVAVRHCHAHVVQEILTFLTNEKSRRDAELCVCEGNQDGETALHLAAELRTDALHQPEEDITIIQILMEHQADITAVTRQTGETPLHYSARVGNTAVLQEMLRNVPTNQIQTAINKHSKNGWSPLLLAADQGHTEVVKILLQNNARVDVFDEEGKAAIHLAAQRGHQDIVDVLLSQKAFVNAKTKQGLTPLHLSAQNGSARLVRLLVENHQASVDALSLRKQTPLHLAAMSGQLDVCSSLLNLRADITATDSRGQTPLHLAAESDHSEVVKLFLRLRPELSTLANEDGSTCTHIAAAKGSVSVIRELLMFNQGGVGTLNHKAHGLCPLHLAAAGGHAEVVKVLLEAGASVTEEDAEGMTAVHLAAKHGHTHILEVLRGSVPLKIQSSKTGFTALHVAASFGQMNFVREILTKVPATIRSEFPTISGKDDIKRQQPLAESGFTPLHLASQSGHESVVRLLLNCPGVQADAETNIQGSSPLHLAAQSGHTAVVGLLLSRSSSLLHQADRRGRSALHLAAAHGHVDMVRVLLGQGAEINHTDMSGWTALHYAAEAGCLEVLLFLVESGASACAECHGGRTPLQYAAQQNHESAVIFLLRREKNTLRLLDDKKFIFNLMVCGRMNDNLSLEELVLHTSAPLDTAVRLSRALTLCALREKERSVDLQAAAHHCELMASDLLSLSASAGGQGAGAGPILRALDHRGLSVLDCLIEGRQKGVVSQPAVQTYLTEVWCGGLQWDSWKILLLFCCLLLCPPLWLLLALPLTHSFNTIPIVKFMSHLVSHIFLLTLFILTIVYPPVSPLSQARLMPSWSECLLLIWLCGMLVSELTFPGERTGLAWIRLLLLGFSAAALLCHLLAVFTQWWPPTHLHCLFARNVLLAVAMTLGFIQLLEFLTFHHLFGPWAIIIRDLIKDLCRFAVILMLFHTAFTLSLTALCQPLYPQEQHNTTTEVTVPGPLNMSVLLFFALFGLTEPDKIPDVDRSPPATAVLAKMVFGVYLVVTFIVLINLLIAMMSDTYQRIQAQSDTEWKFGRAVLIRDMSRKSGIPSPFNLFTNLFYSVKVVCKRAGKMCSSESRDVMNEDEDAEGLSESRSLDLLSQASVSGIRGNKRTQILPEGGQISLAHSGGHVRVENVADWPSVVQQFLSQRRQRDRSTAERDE
Chain of Galanin receptor type 2 (O43603 whole entry): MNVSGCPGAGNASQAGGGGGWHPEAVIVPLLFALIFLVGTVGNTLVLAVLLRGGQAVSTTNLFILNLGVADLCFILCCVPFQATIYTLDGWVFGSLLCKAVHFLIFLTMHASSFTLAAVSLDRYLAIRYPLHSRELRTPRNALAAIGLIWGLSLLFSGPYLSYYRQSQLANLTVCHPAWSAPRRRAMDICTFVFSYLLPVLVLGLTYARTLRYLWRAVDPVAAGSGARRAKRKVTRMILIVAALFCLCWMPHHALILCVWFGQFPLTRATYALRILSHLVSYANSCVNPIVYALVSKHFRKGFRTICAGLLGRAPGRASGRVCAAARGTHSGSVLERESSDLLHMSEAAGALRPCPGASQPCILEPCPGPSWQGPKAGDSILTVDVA
Chain of Nonstructural protein 1 (Q194T2 whole entry): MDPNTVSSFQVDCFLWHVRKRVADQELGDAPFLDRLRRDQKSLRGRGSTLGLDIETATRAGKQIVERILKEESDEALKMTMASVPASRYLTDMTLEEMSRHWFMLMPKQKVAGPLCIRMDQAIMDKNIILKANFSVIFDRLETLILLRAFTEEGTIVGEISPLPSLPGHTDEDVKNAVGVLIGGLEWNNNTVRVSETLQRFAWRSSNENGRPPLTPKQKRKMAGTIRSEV
Chain of Photoreceptor-specific nuclear receptor (Q9Y5X4 whole entry, the tested form may be a part): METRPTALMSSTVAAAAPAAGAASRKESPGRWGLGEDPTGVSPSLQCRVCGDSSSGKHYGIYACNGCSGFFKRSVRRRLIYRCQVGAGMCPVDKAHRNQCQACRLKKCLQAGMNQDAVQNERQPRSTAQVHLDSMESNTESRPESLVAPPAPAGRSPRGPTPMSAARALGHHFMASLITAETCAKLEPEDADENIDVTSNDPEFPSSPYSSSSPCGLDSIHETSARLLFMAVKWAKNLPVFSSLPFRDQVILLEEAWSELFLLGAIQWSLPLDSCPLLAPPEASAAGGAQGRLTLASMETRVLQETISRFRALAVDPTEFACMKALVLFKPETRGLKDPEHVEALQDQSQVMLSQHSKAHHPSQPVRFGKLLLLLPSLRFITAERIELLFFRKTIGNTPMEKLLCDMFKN
Chain of Mucolipin-3 (Q8TDD5 whole entry): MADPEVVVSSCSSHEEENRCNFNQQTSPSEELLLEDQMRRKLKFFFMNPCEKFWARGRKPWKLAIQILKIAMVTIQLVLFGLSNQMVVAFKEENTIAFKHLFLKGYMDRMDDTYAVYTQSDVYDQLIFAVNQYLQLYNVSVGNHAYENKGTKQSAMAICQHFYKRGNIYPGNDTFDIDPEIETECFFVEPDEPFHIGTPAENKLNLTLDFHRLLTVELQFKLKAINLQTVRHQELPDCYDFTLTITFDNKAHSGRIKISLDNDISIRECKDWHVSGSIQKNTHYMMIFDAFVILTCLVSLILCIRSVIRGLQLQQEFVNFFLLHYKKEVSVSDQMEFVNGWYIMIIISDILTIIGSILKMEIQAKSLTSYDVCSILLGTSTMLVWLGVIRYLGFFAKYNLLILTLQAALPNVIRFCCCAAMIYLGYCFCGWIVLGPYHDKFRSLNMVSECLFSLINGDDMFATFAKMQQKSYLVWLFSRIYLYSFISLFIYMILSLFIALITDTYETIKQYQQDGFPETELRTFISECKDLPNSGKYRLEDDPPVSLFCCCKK

Consider `CCOc1ccccc1NC(=O)c1cccc(NC(=O)CC(c2ccccc2)c2ccccc2)c1`, for which the EC50 at Oxytocin receptor is > 29.9 µM (not active).

As for `c1cnc2c(c1)ccc1cccnc12` [PHENANTHROLINE], the IC50 on Galanin receptor type 2 was > 42 µM (not active); in [2] it was 35.2 µM (inactive); in the test on Danio rerio, 7.51 µM (active); at Nonstructural protein 1, 0.902 µM (active); at Exodeoxyribonuclease V, 30.5 µM (inactive). Further, the 50% effective concentration (EC50) was 5.66 µM (active) in test [1]; 6.14 µM (active) in the test on BJ [3]; 16.4 µM (active) in test [4]; 9.41 µM (inconclusive) in test [5]; 7.02 µM (active) in test [6]; 7.62 µM (inconclusive) in the test on BJ [7]. Also, the EC50 in [8] is 6.95 µM (active); with BJ [9] it was 8.88 µM (inconclusive); with BJ [11], 5.03 µM (active). Further, in [10], the half-maximal activity concentration (AC50) is 7.11 µM (active).

Regarding `N=C1SCC(=O)N1c1ncc(Cc2cccc(Cl)c2)s1`, the EC50 is 5.44 µM (active) at Mucolipin-3, > 29.9 µM (not active) at Ion channel NompC, 3.33 µM (active) in the test with Streptococcus and 0.244 µM (active) in test [12]. Besides, in [13], the IC50 is 2.63 µM (active).

Consider `COc1ccc(N(C)S(=O)(=O)c2cccc(C(=O)NC3CCC(C)CC3)c2)cc1` (stereo not given), for which the IC50 in [14] and in [15] was > 35 µM (not active) each time.

Consider `CN(C)C(=O)C(CCN1CCC(O)(c2ccc(Cl)cc2)CC1)(c1ccccc1)c1ccccc1` [LOPERAMIDE HYDROCHLORIDE], for which the IC50 in [16] and in test [17] was > 35 µM (not active) each time.
